Reference: PubChem BioAssay AID1963846 (Molecular Pharmacology Branch, DTP, NCI, 2024)
pIC50: −log10 of the molar value.

System: 454973-116-R2-J3-PDC complex spheroid viability
Assay: Anticancer human tumor 454973-116-R2-J3-PDC patient-derived pancreatic carcinoma cell line growth inhibition [POLQ]
Conditions: for pIC50: curve of first compound; for viability, T/C: stronger effect = lower value
Procedure, shortened: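 PDC + HUVEC + MSC complex spheroids; POLQ inhibitors ± partner drugs; top conc. at/near clinical Cmax, else 10 microM (SN-38 1 microM), half-log dilutions; 37 degrees C, 5% CO2.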

[1] = second compound 0.0316 µM, first compound 0.0316 µM
[2] = second compound 0.0316 µM, first compound 0.1 µM
[3] = second compound 0.0316 µM, first compound 0.316 µM
[4] = second compound 0.0316 µM, first compound 1 µM
[5] = second compound 0.0316 µM, first compound 3.16 µM
[6] = second compound 0.0316 µM, first compound 10 µM
[7] = second compound 0.1 µM, first compound 0.0316 µM
[8] = second compound 0.1 µM, first compound 0.1 µM
[9] = second compound 0.1 µM, first compound 0.316 µM
[10] = second compound 0.1 µM, first compound 1 µM
[11] = second compound 0.1 µM, first compound 3.16 µM
[12] = second compound 0.1 µM, first compound 10 µM
[13] = second compound 0.316 µM, first compound 0.0316 µM
[14] = second compound 0.316 µM, first compound 0.1 µM
[15] = second compound 0.316 µM, first compound 0.316 µM
[16] = second compound 0.316 µM, first compound 1 µM
[17] = second compound 0.316 µM, first compound 3.16 µM
[18] = second compound 0.316 µM, first compound 10 µM
[19] = second compound 1 µM, first compound 0.0316 µM
[20] = second compound 1 µM, first compound 0.1 µM
[21] = second compound 1 µM, first compound 0.316 µM
[22] = second compound 1 µM, first compound 1 µM
[23] = second compound 1 µM, first compound 3.16 µM
[24] = second compound 1 µM, first compound 10 µM
[25] = second compound 3.16 µM, first compound 0.0316 µM
[26] = second compound 3.16 µM, first compound 0.1 µM
[27] = second compound 3.16 µM, first compound 0.316 µM
[28] = second compound 3.16 µM, first compound 1 µM
[29] = second compound 3.16 µM, first compound 3.16 µM
[30] = second compound 3.16 µM, first compound 10 µM
[31] = second compound 10 µM, first compound 0.0316 µM
[32] = second compound 10 µM, first compound 0.1 µM
[33] = second compound 10 µM, first compound 0.316 µM
[34] = second compound 10 µM, first compound 1 µM
[35] = second compound 10 µM, first compound 3.16 µM
[36] = second compound 10 µM, first compound 10 µM
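Further: spheroids exposed to drugs for seven days before measurement.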
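Wherever viability, T/C is given: percent viability relative to DMSO vehicle control wells taken as 100%.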

COc1cc(C2c3cc4c(cc3C(OC3OC5COC(C)OC5C(O)C3O)C3COC(=O)C23)OCO4)cc(OC)c1O (stereo unspecified) + Nc1ccc(C#CCN(C(=O)Cc2ncc(C(F)(F)F)cc2C(F)(F)F)c2ccc(F)cc2)nn1
pIC50 (second compound 0.0316 µM): 6.03 | pIC50 (second compound 0.1 µM): 6.03 | pIC50 (second compound 0.316 µM): 6.09 | pIC50 (second compound 1 µM): 6.11 | pIC50 (second compound 3.16 µM): 6.11 | pIC50 (second compound 10 µM): 6.11 | viability, T/C [1]: 98.2% | viability, T/C [2]: 94.3% | viability, T/C [3]: 78.4% | viability, T/C [4]: 50.9% | viability, T/C [5]: 14.2% | viability, T/C [6]: 8.22% | viability, T/C [7]: 107% | viability, T/C [8]: 102% | viability, T/C [9]: 84.1% | viability, T/C [10]: 49.8% | viability, T/C [11]: 12.3% | viability, T/C [12]: 7.75% | viability, T/C [13]: 98.5% | viability, T/C [14]: 106% | viability, T/C [15]: 82.7% | viability, T/C [16]: 42.6% | viability, T/C [17]: 15.1% | viability, T/C [18]: 5.73% | viability, T/C [19]: 112% | viability, T/C [20]: 94.6% | viability, T/C [21]: 79.1% | viability, T/C [22]: 44.3% | viability, T/C [23]: 12.8% | viability, T/C [24]: 7.26% | viability, T/C [25]: 107% | viability, T/C [26]: 109% | viability, T/C [27]: 80.3% | viability, T/C [28]: 42% | viability, T/C [29]: 12.3% | viability, T/C [30]: 5.16% | viability, T/C [31]: 115% | viability, T/C [32]: 104% | viability, T/C [33]: 79.3% | viability, T/C [34]: 43.5% | viability, T/C [35]: 10.6% | viability, T/C [36]: 5.67%

CCc1c2c(nc3ccc(O)cc13)-c1cc3c(c(=O)n1C2)COC(=O)[C@]3(O)CC + COC1C(OC(N)=O)C(O)C(Oc2ccc3c(O)c(NC(=O)c4ccc(O)c(CC=C(C)C)c4)c(=O)oc3c2C)OC1(C)C
pIC50 (second compound 0.0316 µM): > 8.50 | pIC50 (second compound 0.1 µM): > 8.50 | pIC50 (second compound 0.316 µM): > 8.50 | pIC50 (second compound 1 µM): > 8.50 | pIC50 (second compound 3.16 µM): > 8.50 | pIC50 (second compound 10 µM): > 8.50 | viability, T/C (second compound 0.0316 µM, first compound 0.00316 µM): 37.3% | viability, T/C (second compound 0.0316 µM, first compound 0.01 µM): 16.3% | viability, T/C [1]: 8.76% | viability, T/C [2]: 4.34% | viability, T/C [3]: 4.57% | viability, T/C [4]: 0.92% | viability, T/C (second compound 0.1 µM, first compound 0.00316 µM): 38.9% | viability, T/C (second compound 0.1 µM, first compound 0.01 µM): 13.7% | viability, T/C [7]: 10.5% | viability, T/C [8]: 6.92% | viability, T/C [9]: 2.75% | viability, T/C [10]: 1.04% | viability, T/C (second compound 0.316 µM, first compound 0.00316 µM): 37.1% | viability, T/C (second compound 0.316 µM, first compound 0.01 µM): 15.8% | viability, T/C [13]: 14.7% | viability, T/C [14]: 4.68% | viability, T/C [15]: 2.98% | viability, T/C [16]: 1.19% | viability, T/C (second compound 1 µM, first compound 0.00316 µM): 34.1% | viability, T/C (second compound 1 µM, first compound 0.01 µM): 14.2% | viability, T/C [19]: 12.5% | viability, T/C [20]: 6.32% | viability, T/C [21]: 3.96% | viability, T/C [22]: 3.08% | viability, T/C (second compound 3.16 µM, first compound 0.00316 µM): 31.2% | viability, T/C (second compound 3.16 µM, first compound 0.01 µM): 13.9% | viability, T/C [25]: 9.37% | viability, T/C [26]: 4.13% | viability, T/C [27]: 2.03% | viability, T/C [28]: 2.74% | viability, T/C (second compound 10 µM, first compound 0.00316 µM): 29.1% | viability, T/C (second compound 10 µM, first compound 0.01 µM): 15.1% | viability, T/C [31]: 11.4% | viability, T/C [32]: 6.62% | viability, T/C [33]: 3.37% | viability, T/C [34]: 1.53%

C=CC(=O)N1CCN(c2nc(=O)n(-c3c(C)ccnc3C(C)C)c3nc(-c4c(O)cccc4F)c(F)cc23)C(C)C1 (stereo unspecified) + COC1C(OC(N)=O)C(O)C(Oc2ccc3c(O)c(NC(=O)c4ccc(O)c(CC=C(C)C)c4)c(=O)oc3c2C)OC1(C)C
pIC50 (second compound 0.0316 µM): < 5.00 | pIC50 (second compound 0.1 µM): < 5.00 | pIC50 (second compound 0.316 µM): < 5.00 | pIC50 (second compound 1 µM): < 5.00 | pIC50 (second compound 3.16 µM): < 5.00 | pIC50 (second compound 10 µM): < 5.00 | viability, T/C [1]: 108% | viability, T/C [2]: 106% | viability, T/C [3]: 97.8% | viability, T/C [4]: 111% | viability, T/C [5]: 114% | viability, T/C [6]: 106% | viability, T/C [7]: 108% | viability, T/C [8]: 110% | viability, T/C [9]: 105% | viability, T/C [10]: 113% | viability, T/C [11]: 111% | viability, T/C [12]: 108% | viability, T/C [13]: 102% | viability, T/C [14]: 107% | viability, T/C [15]: 103% | viability, T/C [16]: 113% | viability, T/C [17]: 113% | viability, T/C [18]: 108% | viability, T/C [19]: 113% | viability, T/C [20]: 108% | viability, T/C [21]: 105% | viability, T/C [22]: 114% | viability, T/C [23]: 104% | viability, T/C [24]: 103% | viability, T/C [25]: 110% | viability, T/C [26]: 101% | viability, T/C [27]: 105% | viability, T/C [28]: 97.9% | viability, T/C [29]: 111% | viability, T/C [30]: 102% | viability, T/C [31]: 101% | viability, T/C [32]: 104% | viability, T/C [33]: 99.8% | viability, T/C [34]: 105% | viability, T/C [35]: 110% | viability, T/C [36]: 103%
